Article PMC4904373, “Azole Antifungal Sensitivity of Sterol 14α-Demethylase (CYP51) and CYP5218 from Malassezia globosa” (Scientific Reports, 2016)
Converted amounts (≈) assume the structure as drawn. “And” between values parts separate entries of the source, which are not always exact repeats. Identical values can stand only once.

Key:
M. globosa CYP5218 [1] = target: T1, M. globosa CYP5218 (Malassezia globosa, UniProt A8QCD3, A3L/A5L/F6A/I7V/S4L/S8F); test: biochemical; type: binding; details: for binding spectra with CYP5218: result in words
Protocol: Reduced carbon monoxide difference spectroscopy[46][47] and absolute spectra between 700 and 300 nm were used to determine cytochrome P450 concentrations. Substrate and azole binding studies were performed[31][48] using 2.5 mM stock sterol solutions in 40% (wt/vol) (2-hydroxypropyl)-β-cyclodextrin (HPCD), 4 mg ml^−1 solutions of fatty acids in dimethylformamide (DMF), and stock 0.05, 0.1 and 0.2 mg ml^−1 solutions of azole antifungal agents in dimethylsulfoxide (DMSO). Sterols were titrated against 5 μM CYP51, fatty acids were titrated against 4 μM CYP5218 and azole antifungal agents were titrated against 2 μM CYP51 and CYP5218. The absorbance difference spectrum between 500 and 350 nm was determined after each incremental addition of ligand with saturation curves constructed from ΔApeak-trough against ligand concentration. […] The dissociation constants of the enzyme-azole complex were determined by non-linear regression (Levenberg-Marquardt algorithm) using a rearrangement of the Morrison equation for tight ligand binding. ProFit 6.1.12 (QuantumSoft, Zurich, Switzerland) was used for curve-fitting data. All ligand-binding studies were performed at 22 ± 2 °C and in triplicate. All spectral determinations were made using a Hitachi U-3310 UV/VIS spectrophotometer (San Jose, California).

M. globosa ATCC MYA-4612 = test: M. globosa MIC100 determination; type: cell-based, Malassezia globosa; details: Malassezia globosa, 168 h; modified Dixon medium, 30 °C, 7 days; read-out: MIC100
Protocol: M. globosa ATCC MYA-4612 was grown for 7 days at 30 °C in modified Dixon medium (3.6% malt extract, 2% desiccated ox-bile, 1% Tween 40, 0.6% peptone, 0.2% glycerol, 0.2% oleic acid, pH adjusted to 6 with HCl) until a culture density of 1.5 × 10^5 cells ml^−1 was obtained. Cells from 3 ml of stock culture were harvested, suspended in 1 ml of saline and used to inoculate 30 ml of fresh modified Dixon medium for use as M. globosa inoculums in MIC determinations. Stock azole concentrations of 1600, 800, 400, 200, 100, 50, 25, 12.5, 6.25, 3.125 and 0 μg ml^−1 were prepared in DMSO. These were diluted ten-fold with fresh modified Dixon media and 20 μl of the diluted azole solutions were then mixed with 180 μl of M. globosa inoculum in microtiter plate wells to yield final azole concentrations of 16, 8, 4, 2, 1, 0.5, 0.25, 0.125, 0.0625, 0.03125 and 0 μg ml^−1. The microtiter plates were incubated at 30 °C for 7 days and then read. Each azole MIC100 determination was performed in triplicate.

M. globosa CYP51 [2] = target: T2, M. globosa CYP51 (Malassezia globosa, UniProt A8Q3I7, A7V/E4L/G6A/I5L/L2A/Q3L/W8F); test: biochemical; type: binding
T2 sequence (A8Q3I7 whole entry L2A/Q3L/E4L/I5L/G6A/A7V/W8F): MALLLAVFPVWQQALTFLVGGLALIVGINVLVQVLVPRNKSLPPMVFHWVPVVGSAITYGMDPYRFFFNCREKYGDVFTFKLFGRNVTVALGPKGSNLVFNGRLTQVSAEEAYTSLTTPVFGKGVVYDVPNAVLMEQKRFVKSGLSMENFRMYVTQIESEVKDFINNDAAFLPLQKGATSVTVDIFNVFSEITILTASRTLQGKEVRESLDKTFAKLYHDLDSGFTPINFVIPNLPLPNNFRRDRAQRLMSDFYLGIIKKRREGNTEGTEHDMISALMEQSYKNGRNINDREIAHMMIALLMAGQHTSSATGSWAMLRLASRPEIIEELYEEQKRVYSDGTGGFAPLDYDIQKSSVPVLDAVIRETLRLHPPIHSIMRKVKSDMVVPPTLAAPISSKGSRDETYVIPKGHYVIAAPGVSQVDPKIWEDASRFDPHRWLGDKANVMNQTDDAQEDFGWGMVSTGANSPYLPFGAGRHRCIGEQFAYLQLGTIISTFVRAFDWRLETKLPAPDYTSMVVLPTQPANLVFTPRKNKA
Protocol: (§1) Reduced carbon monoxide difference spectroscopy[46][47] and absolute spectra between 700 and 300 nm were used to determine cytochrome P450 concentrations. Substrate and azole binding studies were performed[31][48] using 2.5 mM stock sterol solutions in 40% (wt/vol) (2-hydroxypropyl)-β-cyclodextrin (HPCD), 4 mg ml^−1 solutions of fatty acids in dimethylformamide (DMF), and stock 0.05, 0.1 and 0.2 mg ml^−1 solutions of azole antifungal agents in dimethylsulfoxide (DMSO). Sterols were titrated against 5 μM CYP51, fatty acids were titrated against 4 μM CYP5218 and azole antifungal agents were titrated against 2 μM CYP51 and CYP5218. The absorbance difference spectrum between 500 and 350 nm was determined after each incremental addition of ligand with saturation curves constructed from ΔApeak-trough against ligand concentration. The dissociation constants (Kd) for sterols and fatty acids were determined by non-linear regression (Levenberg-Marquardt algorithm) using the Michaelis-Menten equation. The dissociation constants of the enzyme-azole complex were determined by non-linear regression (Levenberg-Marquardt algorithm) using a rearrangement of the Morrison equation for tight ligand binding. ProFit 6.1.12 (QuantumSoft, Zurich, Switzerland) was used for curve-fitting data. All ligand-binding studies were performed at 22 ± 2 °C and in triplicate. All spectral determinations were made using a Hitachi U-3310 UV/VIS spectrophotometer (San Jose, California).

M. globosa CYP5218 [3] = target: T1, M. globosa CYP5218; test: biochemical; type: binding; details: for azole binding to CYP5218 (binding spectra): 2 μM CYP5218, result in words; for Kd: azole titrated against 2 μM CYP5218
Protocol: as §1

M. globosa CYP51 [4] = target: T2, M. globosa CYP51; details: 0.5 μM CYP51, 50 μM sterol substrate
Protocol: (§2) Sterol metabolites were recovered by extraction with ethyl acetate followed by derivatization with 0.1 ml N,O-bis(trimethylsilyl)trifluoroacetamide (BSTFA) : trimethylchlorosilane (TMCS) (99:1) and 0.3 ml anhydrous pyridine (2 h at 80 °C) prior to analysis by gas chromatography mass spectrometry (GC/MS)[53].

M. globosa CYP51 [5] = target: T2, M. globosa CYP51; test: biochemical; details: IC50, 0.5 μM CYP51, CYP51:AfCPR1 1:2, 50 μM lanosterol as substrate
Protocol: as §2

M. globosa [6] = test: Sterol analysis of azole-treated M. globosa; type: cell-based, Malassezia globosa; details: 0.125 μg ml^−1 ketoconazole
Protocol: Individual sterols were identified by reference to relative retention times, mass ions and fragmentation patterns. Sterol composition was calculated using peak areas.

M. globosa CYP5218 [7] = target: T1, M. globosa CYP5218; details: 100 μM fatty acid, 1 hour to overnight (~16 h), three different cytochrome P450 reductase redox partners
Protocol: The CYP5218 fatty acid reconstitution assay system used was based on that previously described by Guengerich[54] and contained 200 nM of CYP5218, 500 nM of cytochrome P450 reductase (A. fumigatus CPR1[52]) or H. sapiens CPR[55] or C. albicans CPR[56], 50 μM DLPC, 100 μM fatty acid (lauric acid, myristic acid, palmitic acid, palmitoleic acid, oleic acid and linoleic acid), 4 mM glucose-6-phosphate, 3 U/ml yeast glucose-6-phosphate dehydrogenase in a final volume of 500 μl with 0.1 M potassium phosphate (pH 7.4). Assay mixtures were incubated at 37 °C for 5 min prior to initiation with 4 mM β-NADPHNa4 and then incubated for a further 60 min or overnight (~16 h) at 37 °C. Fatty acid metabolites were recovered by extraction with dichloromethane and dried in a vacuum centrifuge. Samples were derivatized with 200 μl anhydrous pyridine and 250 μl BSTFA:TMCS (99:1) (30 min at 80 °C) and extracted with 500 μl of hexane, prior to analysis by GC/MS (Thermo GC Trace 1300 and ISQ MS). GC analysis was performed with a 5% phenyl methylpolysiloxane column (DB5) (Agilent Technologies). The oven programme was as follows: initial: 70 °C, with 3 min hold; ramp: 10 °C min^−1 to 180 °C (held for 2 min), 10 °C min^−1 to 250 °C (held for 2 min) and 10 °C min^−1 to 280 °C (held for 2 min). Data were analyzed using Thermo Xcalibur 2.2 software.

M. globosa [8] = details: cited from earlier work
[9] = test system: C=C(CC[C@@H](C)[C@H]1CC[C@@]2(C)C3=C(CC[C@]12C)[C@@]1(C)CC[C@H](O)C(C)(C)[C@@H]1CC3)C(C)C; test: purified protein, by the assay type; details: other: 0.13 μM CYP51, 0.5 μM AfCPR1, 5 min at 37 °C, substrate inhibition equation
Protocol: (§3) Assay mixtures were incubated at 37 °C for 10 minutes prior to initiation with 4 mM β-NADPHNa4 followed by shaking at 37 °C for 20 minutes. Sterol metabolites were recovered by extraction with ethyl acetate followed by derivatization with 0.1 ml N,O-bis(trimethylsilyl)trifluoroacetamide (BSTFA) : trimethylchlorosilane (TMCS) (99:1) and 0.3 ml anhydrous pyridine (2 h at 80 °C) prior to analysis by gas chromatography mass spectrometry (GC/MS)[53].

[10] = test system: C=C(CC[C@@H](C)[C@H]1CC[C@@]2(C)C3=C(CC[C@]12C)[C@@]1(C)CC[C@H](O)[C@@H](C)[C@@H]1CC3)C(C)C; test: purified protein, by the assay type; details: other: 0.13 μM CYP51, 0.5 μM AfCPR1, 5 min at 37 °C, substrate inhibition equation
Protocol: as §3

[11] = 4 μM CYP5218, type I spectra, mean of three replicates with SD

CCCCCCCCCCCCCCCCCC(=O)O [Stearic acid, stearic acid]
CYP5218 Kd (μM) Eadie-Hofstee (M. globosa CYP5218 [1]; [11]): no fit ^a
CYP5218 Kd (μM) Michaelis-Menten (M. globosa CYP5218 [1]; [11]): no fit ^a

Clc1ccccc1C(c1ccccc1)(c1ccccc1)n1ccnc1 [clotrimazole]
MIC (M. globosa ATCC MYA-4612): 8 µg/mL (≈ 23.2 µM)
Kd (M. globosa CYP51 [2]): 4 ± 2 nM
azole binding to CYP5218 (binding spectra) (M. globosa CYP5218 [3]): type II binding spectra
Kd (M. globosa CYP5218 [3]): ~500 nM and 486 nM

C=C(CC[C@@H](C)[C@H]1CC[C@@]2(C)C3=C(CC[C@]12C)[C@@]1(C)CC[C@H](O)C(C)(C)[C@@H]1CC3)C(C)C [eburicol]
binding spectra with CYP5218 (M. globosa CYP5218 [1]): failed to give reproducible binding spectra
Kd (M. globosa CYP51 [2]): 23000 nM
turnover number (M. globosa CYP51 [4]): 5.6 min⁻¹

CCC(C)n1ncn(-c2ccc(N3CCN(c4ccc(OCC5COC(Cn6cncn6)(c6ccc(Cl)cc6Cl)O5)cc4)CC3)cc2)c1=O (stereo not shown) [itraconazole]
IC50 (M. globosa CYP51 [5]): 188 ± 8 nM
MIC (M. globosa ATCC MYA-4612): 0.0625 µg/mL (≈ 0.0886 µM)
Kd (M. globosa CYP51 [2]): 2 ± 1 nM
azole binding to CYP5218 (binding spectra) (M. globosa CYP5218 [3]): type II binding spectra
Kd (M. globosa CYP5218 [3]): ~400 nM and 407 nM

CC(=O)N1CCN(c2ccc(OCC3COC(Cn4ccnc4)(c4ccc(Cl)cc4Cl)O3)cc2)CC1 (stereo not shown) [ketoconazole]
IC50 (M. globosa CYP51 [5]): 176 ± 16 nM
MIC (M. globosa ATCC MYA-4612): 0.25 µg/mL (≈ 0.47 µM)
sterol fraction (%) 4,4-dimethylzymosterol (M. globosa [6]): 0%
sterol fraction (%) Eburicol (M. globosa [6]): 30.33%
sterol fraction (%) Episterol (M. globosa [6]): 0%
sterol fraction (%) Ergosta-7-enol (M. globosa [6]): 1.58%
sterol fraction (%) Ergosta-8,22-dienol (M. globosa [6]): 1.89%
sterol fraction (%) Ergosta-8-enol (M. globosa [6]): 2.23%
sterol fraction (%) Ergosterol (M. globosa [6]): 51.50%
sterol fraction (%) Fecosterol (M. globosa [6]): 0.98%
sterol fraction (%) Obtusifoliol (M. globosa [6]): 0.18%
sterol fraction (%) Cholesterol (M. globosa [6]; cholesterol assimilated from growth media): 1.92%
Kd (M. globosa CYP51 [2]): 2 ± 1 nM
azole binding to CYP5218 (binding spectra) (M. globosa CYP5218 [3]): type II binding spectra
Kd (M. globosa CYP5218 [3]): ~1600 nM

CC(C)=CCC[C@@H](C)[C@H]1CC[C@@]2(C)C3=C(CC[C@]12C)[C@@]1(C)CC[C@H](O)C(C)(C)[C@@H]1CC3 [lanosterol]
binding spectra with CYP5218 (M. globosa CYP5218 [1]): failed to give reproducible binding spectra
Kd (M. globosa CYP51 [2]): 32000 nM
turnover number (M. globosa CYP51 [4]): 1.7 min⁻¹

CCCCC/C=C\C/C=C\CCCCCCCC(=O)O [linoleic acid]
Kd (M. globosa CYP5218 [1]; CYP5218 Kd (μM) Eadie-Hofstee, 4 μM CYP5218, type I spectra, mean of three replicates with SD): 36 ± 6 µM
Kd (M. globosa CYP5218 [1]; CYP5218 Kd (μM) Michaelis-Menten, 4 μM CYP5218, type I spectra, mean of three replicates with SD): 36 µM
product formation in CYP5218 reconstitution assay (M. globosa CYP5218 [7]): no observed product formation

CCCCCCCCCCCCCCCC [n-hexadecane]
binding spectra with CYP5218 (M. globosa CYP5218 [1]): No binding spectra

C=C(CC[C@@H](C)[C@H]1CC[C@@]2(C)C3=C(CC[C@]12C)[C@@]1(C)CC[C@H](O)[C@@H](C)[C@@H]1CC3)C(C)C [obtusifoliol]
Kd (M. globosa CYP51 [2]): 28000 nM
turnover number (M. globosa CYP51 [4]): 3.4 min⁻¹

CC[C@@H]([C@H](C)O)n1ncn(-c2ccc(N3CCN(c4ccc(OC[C@@H]5CO[C@@](Cn6cncn6)(c6ccc(F)cc6F)C5)cc4)CC3)cc2)c1=O [posaconazole]
MIC values previously reported (M. globosa [8]): 0.06 µg/mL (≈ 0.0856 µM)

C[C@@H](c1ncncc1F)[C@](O)(Cn1cncn1)c1ccc(F)cc1F [voriconazole]
MIC (M. globosa ATCC MYA-4612): 1 µg/mL (≈ 2.86 µM)
Kd (M. globosa CYP51 [2]): 8 ± 5 nM
Kd (M. globosa CYP5218 [3]): ~107000 nM

M. globosa CYP51 (Malassezia globosa CBS 7966; A7V/E4L/G6A/I5L/L2A/Q3L/W8F)
Km [9]: 55.91 ± 19.79 µM
kcat [9]: 1.092 ± 0.2675 s⁻¹
Km [10]: 42.09 ± 10.45 µM
kcat [10]: 0.8948 ± 0.2368 s⁻¹
